The values below come from ChEMBL document CHEMBL2439951, “Discovery of N-(benzo[1,2,3]triazol-1-yl)-N-(benzyl)acetamido)phenyl) carboxamides as severe acute respiratory syndrome coronavirus (SARS-CoV) 3CLpro inhibitors: identification of ML300 and noncovalent nanomolar inhibitors with an induced-fit binding” (Bioorg Med Chem Lett, 2013).

One data set deals with Cytochrome P450 2D6 (Homo sapiens, UniProt P10635). The data set is described as follows: Inhibition of CYP2D6 (unknown origin). The data set is classed as ADME.
Sequence of Cytochrome P450 2D6 (P10635 whole entry): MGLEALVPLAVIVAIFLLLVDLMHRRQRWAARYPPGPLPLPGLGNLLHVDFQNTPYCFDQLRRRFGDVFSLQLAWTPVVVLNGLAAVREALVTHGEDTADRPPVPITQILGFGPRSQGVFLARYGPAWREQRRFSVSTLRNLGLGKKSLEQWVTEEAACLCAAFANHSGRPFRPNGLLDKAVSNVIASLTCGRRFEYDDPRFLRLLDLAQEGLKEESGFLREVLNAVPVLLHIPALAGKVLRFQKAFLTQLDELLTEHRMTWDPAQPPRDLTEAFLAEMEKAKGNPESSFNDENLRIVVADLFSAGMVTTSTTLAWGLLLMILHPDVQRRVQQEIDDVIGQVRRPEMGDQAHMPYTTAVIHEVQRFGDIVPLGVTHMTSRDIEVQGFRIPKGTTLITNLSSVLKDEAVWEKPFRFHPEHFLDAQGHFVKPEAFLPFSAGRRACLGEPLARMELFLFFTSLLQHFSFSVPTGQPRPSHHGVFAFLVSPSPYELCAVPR
A further data set concerns the target Cytochrome P450 2C9 (Homo sapiens, UniProt P11712). The data set can be described thus: Inhibition of CYP2C9 (unknown origin). The data set is classed as ADME.
In a further data set the target is T1, Cytochrome P450 1A2 (Homo sapiens, UniProt P05177).
T1 sequence (P05177 whole entry): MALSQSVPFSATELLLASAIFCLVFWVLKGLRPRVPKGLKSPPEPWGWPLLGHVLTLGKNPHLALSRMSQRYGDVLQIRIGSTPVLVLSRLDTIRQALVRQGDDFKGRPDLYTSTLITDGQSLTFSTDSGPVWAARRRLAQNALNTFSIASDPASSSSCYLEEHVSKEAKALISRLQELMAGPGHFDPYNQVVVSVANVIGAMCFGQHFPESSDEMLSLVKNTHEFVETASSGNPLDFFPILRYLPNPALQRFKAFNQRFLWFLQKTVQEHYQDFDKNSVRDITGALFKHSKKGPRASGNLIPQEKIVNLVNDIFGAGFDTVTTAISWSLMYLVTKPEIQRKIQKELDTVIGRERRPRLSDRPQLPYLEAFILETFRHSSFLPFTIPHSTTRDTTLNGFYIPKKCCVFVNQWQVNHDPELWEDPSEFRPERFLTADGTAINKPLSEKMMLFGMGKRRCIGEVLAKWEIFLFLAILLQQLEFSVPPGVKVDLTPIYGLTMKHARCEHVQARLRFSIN
The data set can be described thus: Inhibition of CYP1A2 (unknown origin). The format is ADME.

The target in the next data set is Replicase polyprotein 1a (Severe acute respiratory syndrome-related coronavirus, UniProt P0C6U8). The data set is described as follows: Inhibition of SARS coronavirus 3CLpro.
Data set [1] deals with Replicase polyprotein 1a (Severe acute respiratory syndrome-related coronavirus) (UniProt P0C6U8). The data set is described as follows: Inhibition of SARS coronavirus 3CLpro at 100 uM.
Data set [2] can be described thus: Inhibition of SARS coronavirus PLpro. Details: species or system Severe acute respiratory syndrome-related coronavirus; call rule not given here.

Sequence of Cytochrome P450 2C9 (P11712 whole entry): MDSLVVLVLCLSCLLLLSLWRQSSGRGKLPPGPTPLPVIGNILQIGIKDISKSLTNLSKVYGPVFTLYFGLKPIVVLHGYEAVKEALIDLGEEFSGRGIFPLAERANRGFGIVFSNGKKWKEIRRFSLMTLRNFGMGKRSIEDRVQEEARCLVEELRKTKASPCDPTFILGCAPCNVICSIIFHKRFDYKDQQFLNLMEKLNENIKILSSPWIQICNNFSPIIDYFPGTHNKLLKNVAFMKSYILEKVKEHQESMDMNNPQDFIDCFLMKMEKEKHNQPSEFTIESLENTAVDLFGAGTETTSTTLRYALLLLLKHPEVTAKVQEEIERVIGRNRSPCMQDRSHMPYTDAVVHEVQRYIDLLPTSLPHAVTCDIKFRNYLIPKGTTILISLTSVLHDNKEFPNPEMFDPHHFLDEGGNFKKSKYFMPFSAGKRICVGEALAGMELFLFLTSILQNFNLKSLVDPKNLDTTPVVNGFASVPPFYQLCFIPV

Consider `CC(C)(C)NC(=O)[C@@H](c1cccnc1)N(C(=O)c1ccco1)c1ccc(C(C)(C)C)cc1`, for which the INH at Cytochrome P450 2D6 was more than 30 µM; on Cytochrome P450 2C9, 9.1 µM; at Cytochrome P450 1A2, more than 30 µM.

For `COc1ncccc1-c1ccc(N(Cc2ccsc2)C(=O)Cn2nnc3ccccc32)cc1`, at Replicase polyprotein 1a (read-out: IC50), the IC50 is 700 nM.

`O=C(Cn1nnc2ccccc21)N(Cc1ccsc1)c1ccc(-c2ccncc2)cc1`: at Replicase polyprotein 1a (read-out: IC50), the IC50 was determined as 2000 nM.

Turning to `CC(C)COC(=O)Nc1ccc(N(C(=O)Cn2nnc3ccccc32)C(C(=O)NC(C)(C)C)c2ccsc2)cc1` (configuration not stated), the IC50 result against Replicase polyprotein 1a was “Not Active”.

`O=C(Nc1ccc(N(Cc2ccsc2)C(=O)Cn2nnc3ccccc32)cc1)c1ccccc1` gave an inhibition in data set [1] of 18%.

For `CCC(C)(C)NC(=O)[C@@H](c1ccn(C)c1)N(C(=O)Cn1nnc2ccccc21)c1ccc(NC(C)=O)cc1`, the 50% inhibitory concentration (IC50) was more than 60000 nM in data set [2] and 6200 nM at Replicase polyprotein 1a (read-out: IC50).

On to `O=C(Nc1ccc(N(Cc2ccsc2)C(=O)Cn2nnc3ccccc32)cc1)C1CC1`, for which the values for the INH at Cytochrome P450 2D6, at Cytochrome P450 2C9 and on Cytochrome P450 1A2 were 8.4 µM, 7.2 µM and 7.7 µM, respectively.

By IC50 is commonly meant the concentration that gives 50% inhibition. By inhibition is commonly meant how much of the control response was suppressed.
